Test results: US5834461A, “Tricyclic benzazepine vasopressin antagonists” (American Cyanamid Company, priority 1997, dated 1998)

Key:
vasopressin V1 = assay: Vasopressin V1 Antagonist Activity in Conscious Rats (vasopressin vasopressor response); type: in vivo, rat (spontaneously hypertensive rats); parameters: Average Change: unit not given here
Outline: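 Conscious rats had the ventral caudal tail artery cannulated into the lower abdominal aorta under local procaine anesthesia, plus a caudal vein cannula for intravenous dosing. Pulsatile blood pressure was recorded via a Statham P23Db transducer. Vasopressor responses to vasopressin injections were measured before and after compound dosing, with percent antagonism calculated relative to the pre-drug response taken as 100%.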

vasopressin V2 = assay: Vasopressin V2 Antagonist Activity in Conscious Hydrated Rats (diuretic effect); type: in vivo, normal Sprague-Dawley rats; settings: AVP 0.4 μg/kg i.p.
Outline: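 Conscious rats were dosed orally at 0.1–100 mg/kg, and AVP 0.4 μg/kg i.p. in peanut oil followed 1 h later. Urine volume, osmolality and Na/K/Cl were compared against AVP-treated controls, with non-AVP rats as water-loading controls.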

[1] = target: T1, rat kidney medullary V2 receptors (Rattus norvegicus, UniProt Q00788); assay: Binding Assay to Rat Kidney Medullary V2 Receptors; settings: for IC50: rat kidney medullary V2; for inhibition at 10 µM: rat kidney, read-out: V2, % at concentration in brackets
T1 construct: Medullary tissues from rat kidneys are dissected out; from tissue; host or cells: rat kidney medulla membranes
Outline: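 Competition binding: [3H]AVP at 0.8 nM, test compounds from 50% DMSO, and membranes from rat kidney medulla, left 120 min on the bench. Filtration then liquid scintillation counting measured bound ligand; 1.0 μM unlabeled ligand set non-specific binding.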

[2] = 10 mg/kg i.v., VAS 0.01 i.u./kg, 30 min
[3] = 10 mg/kg i.v., VAS 0.05 i.u./kg, 30 min
[4] = 10 mg/kg i.v., VAS 0.1 i.u./kg, 30 min
[5] = 20 mg/kg i.v., VAS 0.01 i.u./kg, 60 min
[6] = 20 mg/kg i.v., VAS 0.01 i.u./kg, 300 min
[7] = 20 mg/kg i.v., VAS 0.05 i.u./kg, 60 min
[8] = 20 mg/kg i.v., VAS 0.05 i.u./kg, 90 min
[9] = 20 mg/kg i.v., VAS 0.05 i.u./kg, 120 min
[10] = 20 mg/kg i.v., VAS 0.05 i.u./kg, 180 min
[11] = 20 mg/kg i.v., VAS 0.05 i.u./kg, 240 min
[12] = 20 mg/kg i.v., VAS 0.05 i.u./kg, 300 min
[13] = 20 mg/kg i.v., VAS 0.1 i.u./kg, 60 min
[14] = 20 mg/kg i.v., VAS 0.1 i.u./kg, 90 min
[15] = 20 mg/kg i.v., VAS 0.1 i.u./kg, 120 min
[16] = 20 mg/kg i.v., VAS 0.1 i.u./kg, 180 min
[17] = 20 mg/kg i.v., VAS 0.1 i.u./kg, 240 min
[18] = 20 mg/kg i.v., VAS 0.1 i.u./kg, 300 min
[19] = 50 mg/kg p.o., VAS 0.01 i.u./kg, 30 min
[20] = 50 mg/kg p.o., VAS 0.01 i.u./kg, 60 min
[21] = 50 mg/kg p.o., VAS 0.01 i.u./kg, 90 min
[22] = 50 mg/kg p.o., VAS 0.01 i.u./kg, 120 min
[23] = 50 mg/kg p.o., VAS 0.01 i.u./kg, 180 min
[24] = 50 mg/kg p.o., VAS 0.01 i.u./kg, 240 min
[25] = 50 mg/kg p.o., VAS 0.02 i.u./kg, 30 min
[26] = 50 mg/kg p.o., VAS 0.02 i.u./kg, 60 min
[27] = 50 mg/kg p.o., VAS 0.02 i.u./kg, 90 min
[28] = 50 mg/kg p.o., VAS 0.02 i.u./kg, 120 min
[29] = 50 mg/kg p.o., VAS 0.02 i.u./kg, 180 min
[30] = 50 mg/kg p.o., VAS 0.02 i.u./kg, 240 min

T1 sequence (Q00788 whole entry): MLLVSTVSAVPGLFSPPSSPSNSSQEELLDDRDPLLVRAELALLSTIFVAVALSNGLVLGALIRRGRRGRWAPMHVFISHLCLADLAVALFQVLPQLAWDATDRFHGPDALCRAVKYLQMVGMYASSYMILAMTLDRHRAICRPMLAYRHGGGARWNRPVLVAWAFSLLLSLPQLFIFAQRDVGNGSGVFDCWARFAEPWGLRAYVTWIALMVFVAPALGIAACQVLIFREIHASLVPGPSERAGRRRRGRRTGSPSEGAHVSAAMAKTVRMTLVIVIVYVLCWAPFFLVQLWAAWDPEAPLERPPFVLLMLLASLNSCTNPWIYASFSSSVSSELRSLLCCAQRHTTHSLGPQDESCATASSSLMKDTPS

Cc1ccccc1C(=O)Nc1ccc(C(=O)N2Cc3ccccc3Cc3ccccc32)cc1 [Example 2, N-[4-[(6,11-Dihydro-5H-dibenz[b,e]azepin-5-yl)carbonyl]phenyl]-2-methylbenzamide]
MAX % Inhibition (vasopressin V1; 10 mg/kg p.o.): 65% | Time of max % inhibition (vasopressin V1; 10 mg/kg p.o.): 180 min | Osmolality (vasopressin V2; 3 mg/kg orally): 1235 ± 162 mOsm/kg | Urine Volume (vasopressin V2; 3 mg/kg orally): 2.9 ± 0.5 ml/4 hrs. | Osmolality (vasopressin V2; 10 mg/kg orally): 408 ± 34 mOsm/kg | Urine Volume (vasopressin V2; 10 mg/kg orally): 15.2 ± 2.4 ml/4 hrs. | Osmolality (vasopressin V2; 30 mg/kg orally): 401 ± 49 mOsm/kg | Urine Volume (vasopressin V2; 30 mg/kg orally): 18.9 ± 1.7 ml/4 hrs. | IC50 [1]: 0.068 µM

Cc1ccccc1C(=O)Nc1ccc(C(=O)N2Cc3ccccc3-c3ccccc32)cc1 [Example 5, 2-Methyl-N-[4-[(5(6H)-phenanthridinyl)carbonyl]phenyl]benzamide]
Average Change (vasopressin V1; [2]): 35 | Inhibition (vasopressin V1; [2]): 22% | Average Change (vasopressin V1; [3]): 30 | Inhibition (vasopressin V1; [3]): -9% | Average Change (vasopressin V1; [4]): 35 | Inhibition (vasopressin V1; [4]): 22% | Average Change (vasopressin V1; [5]): 17.5 | Inhibition (vasopressin V1; [5]): 61% | Average Change (vasopressin V1; [6]): 30 | Inhibition (vasopressin V1; [6]): 33% | Average Change (vasopressin V1; [7]): 10 | Inhibition (vasopressin V1; [7]): 64% | Average Change (vasopressin V1; [8]): 10 | Inhibition (vasopressin V1; [8]): 64% | Average Change (vasopressin V1; [9]): 15 | Inhibition (vasopressin V1; [9]): 45% | Average Change (vasopressin V1; [10]): 12.5 | Inhibition (vasopressin V1; [10]): 55% | Average Change (vasopressin V1; [11]): 17.5 | Inhibition (vasopressin V1; [11]): 36% | Average Change (vasopressin V1; [12]): 22.5 | Inhibition (vasopressin V1; [12]): 18% | Average Change (vasopressin V1; [13]): 17.5 | Inhibition (vasopressin V1; [13]): 61% | Average Change (vasopressin V1; [14]): 20 | Inhibition (vasopressin V1; [14]): 56% | Average Change (vasopressin V1; [15]): 17.5 | Inhibition (vasopressin V1; [15]): 61% | Average Change (vasopressin V1; [16]): 20 | Inhibition (vasopressin V1; [16]): 56% | Average Change (vasopressin V1; [17]): 25 | Inhibition (vasopressin V1; [17]): 44% | Average Change (vasopressin V1; [18]): 30 | Inhibition (vasopressin V1; [18]): 33% | Average Change (vasopressin V1; [19]): 22.5 | Inhibition (vasopressin V1; [19]): 10% | Average Change (vasopressin V1; [20]): 30 | Inhibition (vasopressin V1; [20]): -20% | Average Change (vasopressin V1; [21]): 17.5 | Inhibition (vasopressin V1; [21]): 30% | Average Change (vasopressin V1; [22]): 30 | Inhibition (vasopressin V1; [22]): -20% | Average Change (vasopressin V1; [23]): 20 | Inhibition (vasopressin V1; [23]): 20% | Average Change (vasopressin V1; [24]): 22.5 | Inhibition (vasopressin V1; [24]): 10% | Average Change (vasopressin V1; [25]): 35 | Inhibition (vasopressin V1; [25]): 0% | Average Change (vasopressin V1; [26]): 35.5 | Inhibition (vasopressin V1; [26]): 7% | Average Change (vasopressin V1; [27]): 32.5 | Inhibition (vasopressin V1; [27]): 7% | Average Change (vasopressin V1; [28]): 40 | Inhibition (vasopressin V1; [28]): -14% | Average Change (vasopressin V1; [29]): 37.5 | Inhibition (vasopressin V1; [29]): -7% | Average Change (vasopressin V1; [30]): 38.5 | Inhibition (vasopressin V1; [30]): -10% | Osmolality (vasopressin V2; 10 mg/kg orally): 1137 mOsm/kg | Urine Volume (vasopressin V2; 10 mg/kg orally): 2 ml/4 hrs. | IC50 [1]: 0.029 µM

O=C(Nc1ccc(C(=O)N2Cc3ccccc3Cc3ccccc32)cc1)c1cc(Cl)cc(Cl)c1 [Example 251, N-(4-[(6,11-Dihydro-5H-dibenz[b,e]azepin-5-yl)-carbonyl]phenyl]-3,5-dichlorobenzamide]
MAX % Inhibition (vasopressin V1; 30 mg/kg i.v.): 41% | Time of max % inhibition (vasopressin V1; 30 mg/kg i.v.): 60 min | Osmolality (vasopressin V2; 10 mg/kg orally): 835 mOsm/kg | Urine Volume (vasopressin V2; 10 mg/kg orally): 7.5 ml/4 hrs. | IC50 [1]: 0.14 µM

O=C(Nc1ccc(C(=O)N2Cc3ccccc3Cc3ccccc32)cc1)c1cccc(Cl)c1Cl [Example 253, N-[4-[(6,11-Dihydro-5H-dibenz[b,e]azepin-5-yl)-carbonyl]phenyl]-2,3-dichlorobenzamide]
MAX % Inhibition (vasopressin V1; 30 mg/kg i.v.): 57% | Time of max % inhibition (vasopressin V1; 30 mg/kg i.v.): 180 min | Osmolality (vasopressin V2; 10 mg/kg orally): 837 mOsm/kg | Urine Volume (vasopressin V2; 10 mg/kg orally): 6 ml/4 hrs. | IC50 [1]: 0.19 µM

O=C(Nc1ccc(C(=O)N2Cc3ccccc3Cc3ccccc32)cc1)C1CC=CCC1 (centres unmarked) [Example 255, N-[4-[(6,11-Dihydro-5H-dibenz[b,e]azepin-5-yl)-carbonyl]phenyl]-3-cyclohexene-1-carboxamide]
MAX % Inhibition (vasopressin V1; 10 mg/kg i.v.): 65% | Time of max % inhibition (vasopressin V1; 10 mg/kg i.v.): 60 min | Osmolality (vasopressin V2; 30 mg/kg orally): 1456 mOsm/kg | Urine Volume (vasopressin V2; 30 mg/kg orally): 2.3 ml/4 hrs. | IC50 [1]: 0.039 µM

COc1cc(C(=O)N2Cc3ccccc3Cc3ccccc32)ccc1NC(=O)c1ccccc1C [Example 257, N-[4-[(6,11-Dihydro-5H-dibenz[b,e]azepin-5-yl)-carbonyl]-2-methoxyphenyl]-2-methylbenzamide]
MAX % Inhibition (vasopressin V1; 10 mg/kg i.v.): 71% | Time of max % inhibition (vasopressin V1; 10 mg/kg i.v.): 60 min | Osmolality (vasopressin V2; 10 mg/kg orally): 434 mOsm/kg | Urine Volume (vasopressin V2; 10 mg/kg orally): 11.8 ml/4 hrs.

Cc1ccccc1C(=O)Nc1c(C)cc(C(=O)N2Cc3ccccc3Cc3ccccc32)cc1C [Example 258, N-[4-[(6,11-Dihydro-5H-dibenz[b,e]azepin-5-yl)-carbonyl]-2,6-dimethylphenyl]-2-methylbenzamide]
MAX % Inhibition (vasopressin V1; 30 mg/kg i.v.): 61% | Time of max % inhibition (vasopressin V1; 30 mg/kg i.v.): 60 min | inhibition at 10 µM [1]: 87%

Cc1cc(C(=O)N2Cc3ccccc3Cc3ccccc32)cc(C)c1NC(=O)c1ccc(Cl)cc1Cl [Example 259, N-[4-[(6,11-Dihydro-5H-dibenz[b,e]azepin-5-yl)-carbonyl]-2,6-dimethylphenyl]-2 4-dichlorobenzamide]
MAX % Inhibition (vasopressin V1; 30 mg/kg i.v.): 29% | Time of max % inhibition (vasopressin V1; 30 mg/kg i.v.): 90 min | Osmolality (vasopressin V2; 10 mg/kg orally): 1080 mOsm/kg | Urine Volume (vasopressin V2; 10 mg/kg orally): 6 ml/4 hrs. | inhibition at 10 µM [1]: 13%

COc1cc(C(=O)N2Cc3ccccc3Cc3ccccc32)ccc1NC(=O)c1cc(F)ccc1C [Example 261, N-[4-[(6,11-Dihydro-5H-dibenz[b,e]azepin-5-yl)-carbonyl]-2-methoxyphenyl]-2-methyl-5-fluorobenzamide]
MAX % Inhibition (vasopressin V1; 10 mg/kg i.v.): 74% | Time of max % inhibition (vasopressin V1; 10 mg/kg i.v.): 60 min | Osmolality (vasopressin V2; 10 mg/kg orally): 1337 mOsm/kg | Urine Volume (vasopressin V2; 10 mg/kg orally): 3.8 ml/4 hrs.

Cc1c(F)cccc1C(=O)Nc1ccc(C(=O)N2Cc3ccccc3Cc3ccccc32)cc1Cl [Example 262, N-[4-[(6,11-Dihydro-5H-dibenz[b,e]azepin-5-yl)-carbonyl]-2-chlorophenyl]-2-methyl-3-fluorobenzamide]
Osmolality (vasopressin V2; 10 mg/kg orally): 899 mOsm/kg | Urine Volume (vasopressin V2; 10 mg/kg orally): 6.8 ml/4 hrs.

COc1cc(C(=O)N2Cc3ccccc3Cc3ccccc32)ccc1NC(=O)c1ccc(Cl)cc1Cl [Example 263, N-[4-[(6,11-Dihydro-5H-dibenz[b,e]azepin-5-yl)-carbonyl]-2-methoxyphenyl]-2,4-dichlorobenzamide]
MAX % Inhibition (vasopressin V1; 10 mg/kg i.v.): 55% | Time of max % inhibition (vasopressin V1; 10 mg/kg i.v.): 90 min

CC(C)COc1ccc([N+](=O)[O-])cc1C(=O)Nc1ccc(C(=O)N2Cc3ccccc3Cc3ccccc32)cc1 [Example 453]
Osmolality (vasopressin V2; 10 mg/kg orally): 776 mOsm/kg | Urine Volume (vasopressin V2; 10 mg/kg orally): 9.4 ml/4 hrs. | inhibition at 10 µM [1]: 26%

Cc1nc2c(s1)CCN(C(=O)c1ccc(NC(=O)c3ccc(Cl)cc3Cl)cc1)c1ccccc1-2 [Example 455, N-[4-(4,5-Dihydro-2-methyl-6H-thiazolo[5,4-d][1]-benzazepin-6-yl)carbonyl1phenyl]-2,4-dichlorobenzamide]
MAX % Inhibition (vasopressin V1; 30 mg/kg i.v.): 46% | Time of max % inhibition (vasopressin V1; 30 mg/kg i.v.): 120 min | Osmolality (vasopressin V2; 10 mg/kg orally): 420 mOsm/kg | Urine Volume (vasopressin V2; 10 mg/kg orally): 13.5 ml/4 hrs.

Cc1nc2c(s1)CCN(C(=O)c1ccc(NC(=O)c3cc(F)ccc3C)cc1)c1ccccc1-2 [Example 534]
Osmolality (vasopressin V2; 10 mg/kg orally): 695 mOsm/kg | Urine Volume (vasopressin V2; 10 mg/kg orally): 10.6 ml/4 hrs.

Cc1ccc(F)cc1C(=O)Nc1ccc(C(=O)N2CCc3c[nH]nc3-c3ccccc32)c(Cl)c1 [Example 581]
IC50 [1]: 0.0113 µM

Cc1ccc(F)cc1C(=O)Nc1ccc(C(=O)N2CCc3c[nH]nc3-c3ccccc32)cc1 [Example 584, N-[4-[(4.5-Dihydropyrazolo[4,3-d][1]benzazepin-6(2H)-yl)carbonyl]phenyl]-5-fluoro-2-methylbenzamide]
IC50 [1]: 0.011 µM
